Test results published in patent US20170210778A1, “NOVEL COMPOUNDS” (The Provost, Fellows, Foundation Scholars, and the other …, priority 2014, published 2017).

What was measured:
murine NOD1 = molecular target: T1, murine NOD1 (Mus musculus, UniProt Q8BHB0); assay: NOD1 functional agonist assay, 293mNOD1-SEAP reporter cells; assay type: cell-based; details: 293mNOD1 cells, OD above 3*O.D of negative control
T1 construct: expressed in transfected cells; host or cells: HEK293
T1 sequence (Q8BHB0 1-953): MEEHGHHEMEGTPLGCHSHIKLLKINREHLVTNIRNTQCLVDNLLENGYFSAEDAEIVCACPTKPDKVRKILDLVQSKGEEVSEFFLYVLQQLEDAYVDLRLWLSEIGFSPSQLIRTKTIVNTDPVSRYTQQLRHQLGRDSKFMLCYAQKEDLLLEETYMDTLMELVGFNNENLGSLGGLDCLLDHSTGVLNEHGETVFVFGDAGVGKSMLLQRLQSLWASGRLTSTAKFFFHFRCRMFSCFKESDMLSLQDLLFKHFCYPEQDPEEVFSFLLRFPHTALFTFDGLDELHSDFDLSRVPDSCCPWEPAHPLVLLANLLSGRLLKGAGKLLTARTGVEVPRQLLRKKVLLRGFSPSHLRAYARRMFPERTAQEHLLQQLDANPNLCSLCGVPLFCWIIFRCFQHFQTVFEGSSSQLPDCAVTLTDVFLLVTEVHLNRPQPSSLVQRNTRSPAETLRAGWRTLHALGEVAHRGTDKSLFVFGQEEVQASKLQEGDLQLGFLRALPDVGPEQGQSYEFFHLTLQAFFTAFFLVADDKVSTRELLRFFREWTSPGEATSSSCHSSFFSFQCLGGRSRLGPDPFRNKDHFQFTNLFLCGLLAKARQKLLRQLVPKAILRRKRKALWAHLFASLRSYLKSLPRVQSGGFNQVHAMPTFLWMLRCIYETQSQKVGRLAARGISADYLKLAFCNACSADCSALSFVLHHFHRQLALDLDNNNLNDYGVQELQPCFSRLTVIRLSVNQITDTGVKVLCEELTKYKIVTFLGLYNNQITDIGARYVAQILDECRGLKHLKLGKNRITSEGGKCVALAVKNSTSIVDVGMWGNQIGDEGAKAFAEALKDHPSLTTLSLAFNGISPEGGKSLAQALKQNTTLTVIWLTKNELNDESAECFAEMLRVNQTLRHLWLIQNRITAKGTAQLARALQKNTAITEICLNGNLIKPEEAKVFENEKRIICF
From the text: (§1) HEK293 cells were stably transfected with plasmid for the overexpression of the NOD1 genes and a reporter plasmid expressing a secreted embryonic alkaline phosphatase (SEAP) gene under the control of a promoter inducible by the transcription factors NF-κB and AP-1. These cells are referred herein as 293hNOD1-SEAP (for cells overexpressing the human NOD1 gene) and 293mNOD1-SEAP (for cells overexpressing the murine NOD1 gene). Upon NOD1 stimulation, these cells induce the activation of NF-κB and AP-1 and subsequently the secretion of SEAP. The reporter protein is easily detectable and measurable when using QUANTI-Blue™ (InvivoGen, San Diego, Calif.), a medium that turns purple/blue in the presence of SEAP.
(§2) The biological activity of the compounds of the invention tested using 293hNOD1 and 293mNOD1 cells. SEAP expression was measured using the commercially available SEAP detection kit (HEK-Blue™ Detection, InvivoGen). The SEAP activity in cells was quantified using the microplate reader (FLUOStar OPTIMA, BMG laboratories), the absorbance values were read using filter with excitation at 620 nm and emission at 655 nm. The results provided in Table 2 were expressed as the concentration were a significant mean optical density (OD) can be observed (above 3*O.D of negative control). As a positive control, the NOD1 pathway was stimulated with commercially available iE-DAP (InvivoGen) and C12-iE-DAP (an acylated derivative of DAP; InvivoGen). As a negative control endotoxin-free water was used. Additionally, 293 cells expressing the SEAP gene but not the NOD1 gene were used as a control.

human NOD1 = molecular target: T2, human NOD1 (Homo sapiens, UniProt Q9Y239); assay: NOD1 functional agonist assay, 293hNOD1-SEAP reporter cells; assay type: cell-based; details: 293hNOD1 cells, OD above 3*O.D of negative control
T2 construct: expressed in transfected cells; host or cells: HEK293
T2 sequence (Q9Y239 1-953): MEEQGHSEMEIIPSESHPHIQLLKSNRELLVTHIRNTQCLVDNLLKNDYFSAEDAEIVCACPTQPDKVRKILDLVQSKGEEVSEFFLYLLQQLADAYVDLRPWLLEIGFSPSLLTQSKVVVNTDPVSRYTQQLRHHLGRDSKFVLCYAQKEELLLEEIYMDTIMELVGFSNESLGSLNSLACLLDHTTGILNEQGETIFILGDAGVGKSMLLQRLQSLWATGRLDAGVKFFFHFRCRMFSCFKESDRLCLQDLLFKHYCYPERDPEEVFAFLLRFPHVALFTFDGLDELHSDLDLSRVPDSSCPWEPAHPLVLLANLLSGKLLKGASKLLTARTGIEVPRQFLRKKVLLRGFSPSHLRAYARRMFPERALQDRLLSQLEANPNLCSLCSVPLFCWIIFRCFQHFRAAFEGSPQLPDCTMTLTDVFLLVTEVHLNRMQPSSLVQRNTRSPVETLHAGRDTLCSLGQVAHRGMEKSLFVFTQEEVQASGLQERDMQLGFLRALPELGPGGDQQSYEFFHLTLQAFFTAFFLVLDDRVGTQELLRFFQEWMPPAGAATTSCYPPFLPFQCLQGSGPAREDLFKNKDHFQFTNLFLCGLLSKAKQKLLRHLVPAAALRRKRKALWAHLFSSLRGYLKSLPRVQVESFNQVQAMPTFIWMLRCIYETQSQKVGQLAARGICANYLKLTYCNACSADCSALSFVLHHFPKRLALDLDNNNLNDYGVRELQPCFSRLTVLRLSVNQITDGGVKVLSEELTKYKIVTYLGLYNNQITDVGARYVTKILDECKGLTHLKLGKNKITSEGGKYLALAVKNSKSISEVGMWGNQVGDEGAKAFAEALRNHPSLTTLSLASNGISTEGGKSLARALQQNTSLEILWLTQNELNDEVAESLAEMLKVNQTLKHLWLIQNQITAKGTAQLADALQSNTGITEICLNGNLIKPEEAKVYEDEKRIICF
From the text: as §1, §2

Compound	mNod1: concentration where a significant mean optical density (OD) can be observed (murine NOD1)	hNod1: concentration where a significant mean optical density (OD) can be observed (human NOD1)
CCCCCCC(=O)N[C@@H](C)C(=O)N[C@H](CCC(=O)N[C@H](CSC[C@H](N)C(=O)O)C(=O)NCC(=O)O)C(=O)O [Example 27, N^5-((S)-3-(((R)-2-amino-2-carboxyethyl)thio)-1-((carboxymethyl)amino)-1-oxopropan-2-yl)-N^2-(heptanoyl-L-alanyl)-D-glutamine]	1 µg/mL	1 µg/mL
N[C@H](CCC(=O)N[C@H](CSC[C@H](N)C(=O)O)C(=O)O)C(=O)O [Example 1, N^5-((S)-2-(((R)-2-amino-2-carboxyethyl)thio)-1-carboxyethyl)-D-glutamine]	10 µg/mL	1 µg/mL
CCCCCCCCCCCCCC(=O)N[C@H](CCC(=O)N[C@H](CSC[C@H](N)C(=O)O)C(=O)NCC(=O)O)C(=O)O [Example 25, N^5-((S)-3-(((R)-2-amino-2-carboxyethyl)thio)-1-((carboxymethyl)amino)-1-oxopropan-2-yl)-N^2-tetradecanoyl-D-glutamine]	0.01 µg/mL	0.01 µg/mL
N[C@H](CCC(=O)N[C@@H](COC[C@@H](N)C(=O)O)C(=O)O)C(=O)O [Example 34, N^5-((S)-2-((R)-2-amino-2-carboxyethoxy)-1-carboxyethyl)-D-glutamine]	10 µg/mL	10 µg/mL
C[C@H](N)C(=O)N[C@H](CCC(=O)N[C@H](CSC[C@H](N)C(=O)O)C(=O)O)C(=O)O [Example 5, N^2-(L-alanyl)-N^5-((S)-2-(((R)-2-amino-2-carboxyethyl)thio)-1-carboxyethyl)-D-glutamine]	1 µg/mL	1 µg/mL
CCCCCCCCCCCCCC(=O)N[C@@H](Cc1ccccc1)C(=O)N[C@H](CCC(=O)N[C@H](CSC[C@H](N)C(=O)O)C(=O)O)C(=O)O [Example 13, N^5-((S)-2-(((R)-2-amino-2-carboxyethyl)thio)-1-carboxyethyl)-N^2-(tetradecanoyl-L-phenylalanyl)-D-glutamine]	1 µg/mL	0.001 µg/mL
C[C@@H](NC(=O)[C@@H](CSC[C@H](N)C(=O)O)NC(=O)CC[C@@H](N)C(=O)O)C(=O)O [Example 14, N^5-((S)-3-(((R)-2-amino-2-carboxyethyl)thio)-1-(((R)-1-carboxyethyl)amino)-1-oxopropan-2-yl)-D-glutamine]	10 µg/mL	1 µg/mL
CCCCCCC(=O)N[C@H](CCC(=O)N[C@H](CSC[C@H](N)C(=O)O)C(=O)O)C(=O)O [Example 2, N^5-((S)-2-(((R)-2-amino-2-carboxyethyl)thio)-1-carboxyethyl)-N^2-heptanoyl-D-glutamine]	1 µg/mL	0.1 µg/mL
CCCCCCCCCCCCCC(=O)N[C@H](C(=O)N[C@H](CCC(=O)N[C@H](CSC[C@H](N)C(=O)O)C(=O)O)C(=O)O)C(C)C [Example 12, N^5-((S)-2-(((R)-2-amino-2-carboxyethyl)thio)-1-carboxyethyl)-N^2-(tetradecanoyl-L-valyl)-D-glutamine]	0.1 µg/mL	0.001 µg/mL
N[C@H](CCC(=O)N[C@H](CSC[C@H](N)C(=O)O)C(=O)NCC(=O)O)C(=O)O [Example 22, N^5-((S)-3-(((R)-2-amino-2-carboxyethyl)thio)-1-((carboxymethyl)amino)-1-oxopropan-2-yl)-D-glutamine]	10 µg/mL	1 µg/mL
CC[C@@H](C)[C@H](N)C(=O)N[C@H](CCC(=O)N[C@H](CSC[C@H](N)C(=O)O)C(=O)O)C(=O)O [Example 7, N^2-(L-alloisoleucyl)-N^5-((S)-2-(((R)-2-amino-2-carboxyethyl)thio)-1-carboxyethyl)-D-glutamine]	1 µg/mL	0.1 µg/mL
CC(C)C[C@H](N)C(=O)N[C@H](CCC(=O)N[C@H](CSC[C@H](N)C(=O)O)C(=O)O)C(=O)O [Example 6, N^2-(L-leucyl)-N^5-((S)-2-(((R)-2-amino-2-carboxyethyl)thio)-1-carboxyethyl)-D-glutamine]	1 µg/mL	0.1 µg/mL
C[C@H](N)C(=O)N[C@H](CCC(=O)N[C@H](CSC[C@H](N)C(=O)O)C(=O)N[C@H](C)C(=O)O)C(=O)O [Example 18, N^2-(L-alanyl)-N^5-((S)-3-(((R)-2-amino-2-carboxyethyl)thio)-1-(((R)-1-carboxyethyl)amino)-1-oxopropan-2-yl)-D-glutamine]	1 µg/mL	1 µg/mL
CCCCCCCCCCCCCC(=O)N[C@@H](C)C(=O)N[C@H](CCC(=O)N[C@H](CSC[C@H](N)C(=O)O)C(=O)N[C@H](C)C(=O)O)C(=O)O [Example 21, N^5-((S)-3-(((R)-2-amino-2-carboxyethyl)thio)-1-(((R)-1-carboxyethyl)amino)-1-oxopropan-2-yl)-N^2-(tetradecanoyl-L-alanyl)-D-glutamine]	0.001 µg/mL	0.01 µg/mL
N[C@@H](CSC[C@@H](NC(=O)CC[C@@H](NC(=O)[C@@H](N)Cc1ccccc1)C(=O)O)C(=O)O)C(=O)O [Example 9, N^2-(L-phenylalanyl)-N^5-((S)-2-(((R)-2-amino-2-carboxyethyl)thio)-1-carboxyethyl)-D-glutamine]	10 µg/mL	10 µg/mL
